From patent US20140030705A1, “SYSTEMS AND METHODS FOR ASSESSING BIOMOLECULE CHARACTERISTICS” (BioNano Genomics, Inc., priority 2010, published 2014)

Test system: human B cells
Conditions: 500 μM vs. 0 μM hydrogen peroxide

OO [hydrogen peroxide]
average size of the DNA and label incorporation density (FIG. 8B) (average molecule length and labels/100 kb): clear oxidative damage detection in the form of DSBs and SSBs
DNA size histograms of treated vs. untreated cells (FIG. 8A) (triplicate samples): clear shift to smaller fragment sizes
